Among the test systems are NCI-H522; SK-MEL-28; SK-MEL-5; SNB-75; HL-60; M14; Malme-3M; HOP-62; U-251; TK-10; MOLT-4; UACC-257; A549; OVCAR-4; SF-295; SW-620.
Assay in all cases: growth of human tumour cells (NCI), 48 h

We go through 12 compounds from ChEMBL document CHEMBL1201862, “PubChem BioAssay data set” (2004).

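Dose response: 5 concentrations. Exposure: 48 h. Format: 96-well plates. Endpoint: linear interpolation; highest concentration if not reached. GI50: concentration for 50% inhibition of growth.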 The source made the active and inactive calls. No stated cut-off is given here; in the data, active = GI50 up to about 1.1 µM and inactive = higher.

In the case of `Cc1ccccc1/C=N/C12CC3CC(CC(C3)C1)C2`, the GI50 in the assay with NCI-H522, in the assay with SK-MEL-28, in the assay with SK-MEL-5, in the assay on SNB-75, in the assay with HL-60 and with M14 was > 100 µM (inactive) each time. In addition, the GI50 in the assay on Malme-3M, in the assay with HOP-62, with U-251, in the assay with TK-10, with MOLT-4 and with UACC-257 was > 100 µM (inactive) each time. Further, the GI50 with A549 is > 100 µM (inactive); in the assay on OVCAR-4, > 100 µM (inactive); with SF-295 it was 49.3 µM (inactive); in the assay with SW-620 it was > 100 µM (inactive).
With `O=C(CCN1CCCC1)CC(c1ccccc1)c1c(O)c2ccccc2oc1=O` (configuration not stated), the GI50 in the assay with NCI-H522, with SK-MEL-28, in the assay with SK-MEL-5, in the assay on SNB-75, in the assay on HL-60 and with M14 was > 100 µM (inactive) throughout. Besides, the GI50 with Malme-3M, with HOP-62, in the assay on U-251, with TK-10, in the assay on MOLT-4 and in the assay on UACC-257 was > 100 µM (inactive) throughout. Besides, the GI50 with A549, in the assay with OVCAR-4, with SF-295 and in the assay with SW-620 was > 100 µM (inactive) throughout.
Regarding `O=C(O)OC12CCCCCC1C(=O)C1CCCCC12` (configuration not stated), the GI50 was 65.8 µM (inactive) in the assay with NCI-H522; > 100 µM (inactive) in the assay with SK-MEL-28; > 100 µM (inactive) in the assay with SK-MEL-5; 20.1 µM (inactive) in the assay on SNB-75; 47 µM (inactive) in the assay on HL-60; > 100 µM (inactive) in the assay on M14. Moreover, the GI50 in the assay with Malme-3M is > 100 µM (inactive); in the assay with HOP-62, > 100 µM (inactive); in the assay on U-251, > 100 µM (inactive); with TK-10, > 100 µM (inactive); in the assay on MOLT-4, 46 µM (inactive); with UACC-257, > 100 µM (inactive). Moreover, the GI50 in the assay on A549, in the assay with OVCAR-4, with SF-295 and with SW-620 was > 100 µM (inactive) throughout.
Take `O=C1OC(c2ccccc2)=N/C1=C\c1cccc2ccccc12`: the GI50 with NCI-H522, in the assay with SK-MEL-28, in the assay with SK-MEL-5, with SNB-75, in the assay on HL-60 and with M14 was > 100 µM (inactive) each time. Also, the GI50 in the assay on Malme-3M, in the assay with HOP-62, in the assay with U-251, in the assay with TK-10, with MOLT-4 and with UACC-257 was > 100 µM (inactive) throughout. The GI50 with A549, with OVCAR-4, with SF-295 and in the assay with SW-620 was > 100 µM (inactive) in each case.
Take `N#CN=C(NCc1ccccc1)NCc1ccccc1`: the GI50 in the assay on NCI-H522, with SK-MEL-28, with SK-MEL-5, with SNB-75, in the assay on HL-60 and in the assay with M14 was > 100 µM (inactive) in each case. Moreover, the GI50 in the assay on Malme-3M was > 100 µM (inactive); in the assay on HOP-62 it was > 100 µM (inactive); with U-251 it was > 48.2 µM (inactive); with TK-10 it was > 100 µM (inactive); with MOLT-4 it was > 100 µM (inactive); in the assay with UACC-257, > 100 µM (inactive). Besides, the GI50 with A549 was > 83 µM (inactive); in the assay with OVCAR-4, > 100 µM (inactive); in the assay with SF-295 it was > 100 µM (inactive); in the assay with SW-620, > 44 µM (inactive).
Turning to `O=C1c2ccccc2C(=O)N1/N=C\c1ccc(Br)cc1`, the GI50 with NCI-H522 is > 100 µM (inactive); in the assay with SK-MEL-28 it was > 10 µM (inactive); in the assay on SK-MEL-5, > 10 µM (inactive); with SNB-75 it was > 10 µM (inactive); in the assay on HL-60, > 10 µM (inactive); in the assay with M14, > 10 µM (inactive). Further, the GI50 is > 10 µM (inactive) with Malme-3M; > 10 µM (inactive) in the assay with HOP-62; > 100 µM (inactive) in the assay with U-251; > 10 µM (inactive) with TK-10; > 10 µM (inactive) in the assay with MOLT-4; > 10 µM (inactive) with UACC-257. Besides, the GI50 in the assay on A549, in the assay on OVCAR-4, in the assay with SF-295 and with SW-620 was > 10 µM (inactive) in each case.
Consider `CC(C)N(C(=O)C12C3C4C5(C#N)C3C1(I)C5C42I)C(C)C` (configuration not stated), for which the GI50 was > 100 µM (inactive) in the assay with NCI-H522; > 100 µM (inactive) with SK-MEL-28; > 100 µM (inactive) with SK-MEL-5; > 70.3 µM (inactive) in the assay with SNB-75; > 47.4 µM (inactive) in the assay with HL-60; > 100 µM (inactive) in the assay on M14. Moreover, the GI50 with Malme-3M is > 100 µM (inactive); in the assay on HOP-62, > 100 µM (inactive); in the assay on U-251, > 84.1 µM (inactive); with TK-10, > 100 µM (inactive); in the assay with MOLT-4 it was > 100 µM (inactive); with UACC-257, > 100 µM (inactive). The GI50 with A549 is > 100 µM (inactive); in the assay on OVCAR-4 it was > 45.5 µM (inactive); in the assay on SF-295, > 100 µM (inactive); with SW-620 it was > 27 µM (inactive).
As to `CCOC(=O)C12C(C(=O)OC)=C(C)N(NC(=O)Nc3ccccc3)C1(N)N(NC(=O)Nc1ccccc1)C(C)=C2C(=O)OC` (configuration not stated), the GI50 is 20.9 µM (inactive) with NCI-H522; 34.1 µM (inactive) in the assay on SK-MEL-28; 19.9 µM (inactive) in the assay on SK-MEL-5; 33.7 µM (inactive) in the assay with SNB-75; 23.6 µM (inactive) with HL-60; 21.2 µM (inactive) in the assay with M14. Further, the GI50 with Malme-3M is 21.6 µM (inactive); with HOP-62 it was 20.5 µM (inactive); in the assay on U-251, 17.7 µM (inactive); in the assay on TK-10, 36.1 µM (inactive); with MOLT-4 it was 17.9 µM (inactive); with UACC-257, 21.1 µM (inactive). The GI50 with A549 is 44.6 µM (inactive); in the assay on OVCAR-4, 39.8 µM (inactive); with SF-295, 26.1 µM (inactive); in the assay on SW-620, 40.6 µM (inactive).
Consider `O=C(CCN1CCCCC1CO)Nc1ccc2c(c1)C(=O)c1ccc(NC(=O)CCN3CCCCC3CO)cc1C2=O` (configuration not stated), for which the GI50 with NCI-H522 was 8.18 µM (inactive); with SK-MEL-28, 12.9 µM (inactive); with SK-MEL-5, 15.4 µM (inactive); in the assay with SNB-75, 4.28 µM (inactive); in the assay with HL-60, 10.6 µM (inactive); in the assay with M14 it was 10.4 µM (inactive). The GI50 was 5.27 µM (inactive) with Malme-3M; 14.5 µM (inactive) with HOP-62; 8.13 µM (inactive) with U-251; 8.3 µM (inactive) in the assay with TK-10; 8.39 µM (inactive) in the assay on MOLT-4; 14.4 µM (inactive) with UACC-257. The GI50 was 27.9 µM (inactive) in the assay with A549, 11.5 µM (inactive) in the assay on OVCAR-4, 23.8 µM (inactive) with SF-295 and 3.64 µM (inactive) with SW-620.
Regarding `CCCOC(=O)C1CCC(=O)N1C(=O)C(Cl)Cl` (configuration not stated), the GI50 is > 100 µM (inactive) in the assay on NCI-H522; > 100 µM (inactive) with SK-MEL-28; > 100 µM (inactive) with SK-MEL-5; 59 µM (inactive) in the assay on SNB-75; > 100 µM (inactive) in the assay on HL-60; > 100 µM (inactive) in the assay on M14. Further, the GI50 in the assay with Malme-3M, in the assay on HOP-62, in the assay with U-251, in the assay with TK-10, in the assay with MOLT-4 and in the assay with UACC-257 was > 100 µM (inactive) each time. Besides, the GI50 with A549, in the assay on OVCAR-4, with SF-295 and in the assay on SW-620 was > 100 µM (inactive) throughout.
On to `CCCCCCCCCCC(=O)CC(=O)c1c(O)cccc1O`, for which the GI50 in the assay with NCI-H522 is 28.1 µM (inactive); in the assay with SK-MEL-28 it was 53.7 µM (inactive); in the assay on SK-MEL-5, 28.4 µM (inactive); in the assay with SNB-75, 40.3 µM (inactive); with HL-60, 16.3 µM (inactive); in the assay with M14 it was 40.2 µM (inactive). Further, the GI50 with Malme-3M is 35.9 µM (inactive); in the assay on HOP-62 it was 24.1 µM (inactive); in the assay on U-251, 21.5 µM (inactive); with TK-10 it was 46.2 µM (inactive); with MOLT-4, 20.4 µM (inactive); in the assay with UACC-257, 31.2 µM (inactive). Moreover, the GI50 is 32.4 µM (inactive) with A549, 43.1 µM (inactive) in the assay with OVCAR-4, 36.6 µM (inactive) in the assay on SF-295 and 34.2 µM (inactive) with SW-620.
For the compound `CN(C)CC(C)(C)C(=O)/C=C/c1ccc(/C=C/C(=O)C(C)(C)CN(C)C)cc1`, the GI50 in the assay on NCI-H522 is 0.136 µM (active); with SK-MEL-28 it was 1.87 µM (inactive); in the assay on SK-MEL-5, 2.32 µM (inactive); in the assay on SNB-75 it was 1.58 µM (inactive); in the assay with HL-60, 1.61 µM (inactive); with M14, 1.62 µM (inactive). The GI50 with Malme-3M was 1.87 µM (inactive); in the assay on HOP-62, 2.14 µM (inactive); in the assay on U-251 it was 1.61 µM (inactive); in the assay on TK-10, 1.64 µM (inactive); in the assay with MOLT-4, 0.519 µM (active); in the assay on UACC-257 it was 2.09 µM (inactive). Moreover, the GI50 was 2.79 µM (inactive) in the assay with A549, 1.02 µM (active) in the assay on OVCAR-4, 2.05 µM (inactive) in the assay on SF-295 and 0.706 µM (active) in the assay on SW-620.
